Test results from patent publication US20070292478A1 (priority 2004, published 2007).

Legend:
[1] = maximal tolerated dose of Rhodamine 123 delivered intravenously in man; type: in vivo; conditions: 70 kg patient, each injection
Experimental: Because inhibitors of oxidative phosphorylation are toxic to a subject in the doses needed for efficacy via the systemic route, such inhibitors have been largely overlooked for effective treatment of conditions such as cancer. […] It is also known that the maximal tolerated dose of Rhodamine 123 delivered intravenously in man is 95 mg/m^2. For a 70 kg patient, the tolerated dose of systemically delivered rhodamine is about 150 mg for each injection.

tumour = experiment: local delivery of rhodamine on an implant; type: in vivo; conditions: delivering 40 or 50 mg locally on implant
Source text: Furthermore, the lethal dose can be greatly exceeded. […] Such a dose, delivered systemically, would require 100 g of rhodamine, more than 1000 times the lethal dose.

prostate tumours = conditions: clinical trial, cited from earlier work

## rhodamine
[1]
  tolerated dose of systemically delivered rhodamine: about 150 mg
tumour
  tumour outcome: leads to tumour death
Prostate tumours; maximum non-lethal systemic doses
  effect on prostate tumours: did not shown any significant effect
Prostate tumours; systemic delivery
  accumulation in the prostate of the patients: accumulation was confirmed
